Results published in ChEMBL document CHEMBL4806970, “Degraders of cyclin-dependent kinase 12 (cdk12) and uses thereof” (2020).
Several values for one entry are separate records, joined by “and”; a condition that tells them apart may be missing. Equal values may be shown once. Activity calls are given as the source filed them. No cut-off for these calls is given here.

Experiments:
[1] = Cmax in C57BL/6 mouse at 2 mg/kg, iv measured up to 8 hrs post-dosing; type: ADME, organism-based; design: route intravenous, dose 2 mg/kg, time <=8; conditions: in vivo
[2] = biological target: T1, Protein cereblon/Cyclin-dependent kinase 12 (Homo sapiens) (UniProt Q9NYV4+Q96SW2); test: PROTAC activity at CRBN/CDK12 in human Jurkat cells assessed as induction of CDK12 degradation at 100 nM incubated for 6 hrs by western blot analysis; type: cell-based
[3] = AUC(infinity) in C57BL/6 mouse at 2 mg/kg, iv measured up to 8 hrs post-dosing; type: ADME, organism-based; design: route intravenous, dose 2 mg/kg, time <=8; conditions: in vivo
[4] = AUClast in C57BL/6 mouse at 2 mg/kg, iv measured up to 8 hrs post-dosing; type: ADME, organism-based; design: route intravenous, dose 2 mg/kg, time <=8; conditions: in vivo
[5] = AUC (extrapolated) in C57BL/6 mouse at 2 mg/kg, iv measured up to 8 hrs post-dosing; type: ADME, organism-based; conditions: in vivo
[6] = Half life in C57BL/6 mouse at 2 mg/kg, iv measured up to 8 hrs post-dosing; type: ADME, organism-based; conditions: in vivo
[7] = biological target: T1, Protein cereblon/Cyclin-dependent kinase 12 (Homo sapiens); test: PROTAC activity at CRBN/CDK12 in human Jurkat cells assessed as induction of CDK12 degradation up to 500 nM incubated for 6 hrs by western blot analysis; type: cell-based; conditions: dose nM <=500, time 6.0 hrs

T1 sequence (Q96SW2 whole entry, looked up): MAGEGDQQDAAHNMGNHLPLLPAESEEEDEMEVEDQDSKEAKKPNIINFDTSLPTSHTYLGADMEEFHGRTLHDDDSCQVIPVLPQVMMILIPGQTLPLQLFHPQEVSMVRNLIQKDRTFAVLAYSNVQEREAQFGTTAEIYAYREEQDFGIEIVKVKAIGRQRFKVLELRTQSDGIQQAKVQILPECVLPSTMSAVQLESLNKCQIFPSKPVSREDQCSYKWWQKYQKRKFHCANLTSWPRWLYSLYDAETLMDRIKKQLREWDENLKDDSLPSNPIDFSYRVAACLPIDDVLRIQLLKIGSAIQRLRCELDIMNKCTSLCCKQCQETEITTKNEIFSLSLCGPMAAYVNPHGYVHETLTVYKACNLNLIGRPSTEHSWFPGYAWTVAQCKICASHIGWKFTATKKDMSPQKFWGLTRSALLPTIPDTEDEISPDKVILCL
T1 sequence (Q9NYV4 whole entry, looked up): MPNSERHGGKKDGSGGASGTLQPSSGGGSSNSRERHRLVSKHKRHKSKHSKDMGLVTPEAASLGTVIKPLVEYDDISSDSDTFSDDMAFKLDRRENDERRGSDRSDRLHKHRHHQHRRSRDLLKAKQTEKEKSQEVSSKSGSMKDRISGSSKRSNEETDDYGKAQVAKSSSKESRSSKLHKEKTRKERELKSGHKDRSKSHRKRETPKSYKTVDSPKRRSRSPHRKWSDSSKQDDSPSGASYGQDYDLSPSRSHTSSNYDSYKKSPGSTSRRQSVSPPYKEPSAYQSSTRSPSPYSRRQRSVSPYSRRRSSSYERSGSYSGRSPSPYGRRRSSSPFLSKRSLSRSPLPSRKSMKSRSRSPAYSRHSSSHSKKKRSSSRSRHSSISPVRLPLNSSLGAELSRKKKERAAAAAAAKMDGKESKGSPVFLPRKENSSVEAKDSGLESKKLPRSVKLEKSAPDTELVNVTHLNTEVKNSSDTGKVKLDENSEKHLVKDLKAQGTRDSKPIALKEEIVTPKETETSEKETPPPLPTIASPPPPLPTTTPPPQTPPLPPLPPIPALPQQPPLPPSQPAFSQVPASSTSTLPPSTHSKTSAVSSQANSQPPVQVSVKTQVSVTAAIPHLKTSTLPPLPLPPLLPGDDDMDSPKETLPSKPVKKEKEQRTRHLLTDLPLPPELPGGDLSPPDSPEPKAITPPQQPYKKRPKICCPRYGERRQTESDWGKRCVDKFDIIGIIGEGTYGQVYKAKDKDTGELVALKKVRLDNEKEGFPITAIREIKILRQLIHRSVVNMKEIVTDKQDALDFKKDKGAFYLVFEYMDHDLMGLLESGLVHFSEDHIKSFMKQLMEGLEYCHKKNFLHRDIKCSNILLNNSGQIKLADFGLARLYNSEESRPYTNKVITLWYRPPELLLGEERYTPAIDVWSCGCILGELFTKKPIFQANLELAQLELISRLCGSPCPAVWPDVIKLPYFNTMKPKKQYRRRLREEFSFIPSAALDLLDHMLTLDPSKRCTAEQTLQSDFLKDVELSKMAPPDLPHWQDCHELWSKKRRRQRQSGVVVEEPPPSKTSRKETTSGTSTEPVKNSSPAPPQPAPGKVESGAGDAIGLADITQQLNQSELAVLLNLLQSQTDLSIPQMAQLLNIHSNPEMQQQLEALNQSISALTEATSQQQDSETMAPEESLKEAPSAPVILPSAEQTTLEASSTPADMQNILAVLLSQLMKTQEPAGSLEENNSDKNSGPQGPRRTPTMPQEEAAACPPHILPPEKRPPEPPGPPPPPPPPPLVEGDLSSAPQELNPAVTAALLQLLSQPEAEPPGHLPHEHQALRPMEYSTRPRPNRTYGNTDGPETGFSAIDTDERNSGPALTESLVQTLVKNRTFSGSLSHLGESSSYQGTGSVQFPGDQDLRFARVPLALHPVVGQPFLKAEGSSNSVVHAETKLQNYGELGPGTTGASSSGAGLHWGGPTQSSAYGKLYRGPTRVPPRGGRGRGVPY

| Compound | Activity [2] [%] | Activity [7] | other results |
| --- | --- | --- | --- |
| Cc1ncsc1-c1ccc([C@H](C)NC(=O)[C@@H]2C[C@@H](O)CN2C(=O)[C@@H](NC(=O)CCCCCCCCCCN2CCC[C@@H](Nc3ncc(Cl)c(Nc4ccccc4S(=O)(=O)C(C)C)n3)C2)C(C)(C)C)cc1 | 90 | – | Cmax [1]: 4570 ng/mL and 4.49 µM; AUC(0-inf) [3]: 6140 ng·h/mL; AUC(0-t) at 8 h [4]: 5720 ng·h/mL and 5.61 µM·h; %AUCextra [5]: 6.27%; half-life [6]: 2.21 h |
| O=C(COc1cccc2c1C(=O)N(C1CCC(=O)NC1=O)C2=O)NCCCCCCN1CCC[C@@H](Nc2ncc(Cl)c(-c3c[nH]c4ccccc34)n2)C1 (some centres not stated) | 80 | – | – |
| O=C(COc1cccc2c1C(=O)N(C1CCC(=O)NC1=O)C2=O)NCCCCCN1CCC[C@@H](Nc2ncc(Cl)c(-c3c[nH]c4ccccc34)n2)C1 (some centres not stated) | – | inactive | – |
| O=C(COc1cccc2c1C(=O)N(C1CCC(=O)NC1=O)C2=O)NCCOCCOCCOCCN1CCC[C@@H](Nc2ncc(Cl)c(-c3c[nH]c4ccccc34)n2)C1 (some centres not stated) | 80 | – | – |
| O=C(COc1cccc2c1C(=O)N(C1CCC(=O)NC1=O)C2=O)NCCCCCN1CCN(c2ccc(C(=O)N3CCC[C@@H](Nc4ncc(Cl)c(-c5c[nH]c6ccccc56)n4)C3)cc2)CC1 (some centres not stated) | 80 | – | – |
| O=C(COc1cccc2c1C(=O)N(C1CCC(=O)NC1=O)C2=O)NCCCCCCCN1CCC[C@@H](Nc2ncc(Cl)c(-c3c[nH]c4ccccc34)n2)C1 (some centres not stated) | 90 | – | – |
| O=C(COc1cccc2c1C(=O)N(C1CCC(=O)NC1=O)C2=O)NCCCCCCN1CCC(C(=O)N2CCC[C@@H](Nc3ncc(Cl)c(-c4c[nH]c5ccccc45)n3)C2)CC1 (some centres not stated) | 80 | – | – |
| O=C(COc1cccc2c1C(=O)N(C1CCC(=O)NC1=O)C2=O)NCCOCCOCCC(=O)N1CCC[C@@H](Nc2ncc(Cl)c(-c3c[nH]c4ccccc34)n2)C1 (some centres not stated) | – | inactive | – |
| Cc1ncsc1-c1ccc([C@H](C)NC(=O)[C@H]2C[C@H](O)CN2C(=O)[C@@H](NC(=O)CCCCCCCCCCN2CCC[C@@H](Nc3ncc(Cl)c(Nc4ccccc4S(=O)(=O)C(C)C)n3)C2)C(C)(C)C)cc1 | – | inactive | – |
| Cc1ncsc1-c1ccc([C@H](C)NC(=O)[C@@H]2C[C@@H](O)CN2C(=O)[C@@H](NC(=O)CCOCCOCCOCCN2CCC[C@@H](Nc3ncc(Cl)c(Nc4ccccc4S(=O)(=O)C(C)C)n3)C2)C(C)(C)C)cc1 | 90 | – | – |
| O=C(COc1cccc2c1C(=O)N(C1CCC(=O)NC1=O)C2=O)NCCCCCCCN1CCN(c2cccc(C(=O)N3CCC[C@@H](Nc4ncc(Cl)c(-c5c[nH]c6ccccc56)n4)C3)c2)CC1 (some centres not stated) | – | inactive | – |
| O=C(COc1cccc2c1C(=O)N(C1CCC(=O)NC1=O)C2=O)NCCCN1CCN(c2ccc(C(=O)N3CCC[C@@H](Nc4ncc(Cl)c(-c5c[nH]c6ccccc56)n4)C3)cc2)CC1 (some centres not stated) | 60 | – | – |
| O=C(COc1cccc2c1C(=O)N(C1CCC(=O)NC1=O)C2=O)NCCCCCCCN1CCC(C(=O)N2CCC[C@@H](Nc3ncc(Cl)c(-c4c[nH]c5ccccc45)n3)C2)CC1 (some centres not stated) | 80 | – | – |
| O=C(COc1cccc2c1C(=O)N(C1CCC(=O)NC1=O)C2=O)NCCCCN1CCC[C@@H](Nc2ncc(Cl)c(-c3c[nH]c4ccccc34)n2)C1 (some centres not stated) | – | inactive | – |
| O=C(COc1cccc2c1C(=O)N(C1CCC(=O)NC1=O)C2=O)NCCOCCOCCN1CCC[C@@H](Nc2ncc(Cl)c(-c3c[nH]c4ccccc34)n2)C1 (some centres not stated) | – | inactive | – |
| O=C(COc1cccc2c1C(=O)N(C1CCC(=O)NC1=O)C2=O)NCCCCCC(=O)N1CCC[C@@H](Nc2ncc(Cl)c(-c3c[nH]c4ccccc34)n2)C1 (some centres not stated) | – | inactive | – |
| CC(C)S(=O)(=O)c1ccccc1Nc1nc(N[C@@H]2CCCN(CCCCCCCNC(=O)COc3cccc4c3C(=O)N(C3CCC(=O)NC3=O)C4=O)C2)ncc1Cl (some centres not stated) | 90 | – | – |
